Literature values, collected in publication PMC6987128, “Target protein-oriented isolation of Hes1 dimer inhibitors using protein based methods” (Scientific Reports, 2020).

System: NSCs
Details: cited from earlier work

Molecule	differentiation of NSCs to neurons
COc1ccc(-c2cc(=O)c3c(O[C@@H]4O[C@H](CO[C@@H]5OC[C@@H](O)[C@H](O)[C@H]5O)[C@@H](O)[C@H](O)[C@H]4O)cc(OC)cc3o2)cc1 [agalloside]	accelerated the differentiation of NSCs to neurons
C/C=C/C=C/C=C/[C@@H]1NCC[C@@H](O)[C@H]1C [inohanamine]	accelerated the differentiation of NSCs to neurons
isomicromonolactam	accelerated the differentiation of NSCs to neurons
